Test results reported in article PMC7316778 (Nature Communications, 2020).
Several values for one entry are separate records, joined by “and”; a condition that tells them apart may be missing. Identical values can stand only once. Like-named read-outs stand apart in the source and are kept apart here.

Assays:
DYRK2 = target: T1, DYRK2 (Homo sapiens, UniProt Q92630); assay: SelectScreen kinase assay; details: for Inhibition at 1 µM (%): DYRK2, LanthaScreen Binding
T1 sequence (Q92630 1-601): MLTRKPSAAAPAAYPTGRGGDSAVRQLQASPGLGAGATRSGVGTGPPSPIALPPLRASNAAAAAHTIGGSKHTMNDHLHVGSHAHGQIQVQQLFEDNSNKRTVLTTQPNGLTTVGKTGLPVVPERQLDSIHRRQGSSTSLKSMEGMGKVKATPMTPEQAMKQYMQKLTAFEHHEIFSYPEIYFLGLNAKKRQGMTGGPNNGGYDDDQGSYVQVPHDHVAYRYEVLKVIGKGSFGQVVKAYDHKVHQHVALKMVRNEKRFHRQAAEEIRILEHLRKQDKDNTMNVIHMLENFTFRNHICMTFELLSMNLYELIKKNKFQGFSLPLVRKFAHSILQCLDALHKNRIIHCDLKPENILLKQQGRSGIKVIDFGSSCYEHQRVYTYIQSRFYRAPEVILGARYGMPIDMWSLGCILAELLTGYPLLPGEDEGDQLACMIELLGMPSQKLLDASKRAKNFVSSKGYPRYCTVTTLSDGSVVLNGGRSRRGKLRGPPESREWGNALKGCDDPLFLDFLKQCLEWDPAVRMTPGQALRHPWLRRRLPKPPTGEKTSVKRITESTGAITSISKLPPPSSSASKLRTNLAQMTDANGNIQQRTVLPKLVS
Method: (§1) Selectivity profiling assays were performed by the Invitrogen SelectScreen™ Services. […] The concentration of ATP was selected to be equal to the KM, unless indicated otherwise.

EPHB4 = target: T2, EPHB4 (Homo sapiens, UniProt P54760); assay: SelectScreen kinase assay; details: for Inhibition at 1 µM (%): EPHB4, ZLYTE, ATP Km app
T2 sequence (P54760 16-987): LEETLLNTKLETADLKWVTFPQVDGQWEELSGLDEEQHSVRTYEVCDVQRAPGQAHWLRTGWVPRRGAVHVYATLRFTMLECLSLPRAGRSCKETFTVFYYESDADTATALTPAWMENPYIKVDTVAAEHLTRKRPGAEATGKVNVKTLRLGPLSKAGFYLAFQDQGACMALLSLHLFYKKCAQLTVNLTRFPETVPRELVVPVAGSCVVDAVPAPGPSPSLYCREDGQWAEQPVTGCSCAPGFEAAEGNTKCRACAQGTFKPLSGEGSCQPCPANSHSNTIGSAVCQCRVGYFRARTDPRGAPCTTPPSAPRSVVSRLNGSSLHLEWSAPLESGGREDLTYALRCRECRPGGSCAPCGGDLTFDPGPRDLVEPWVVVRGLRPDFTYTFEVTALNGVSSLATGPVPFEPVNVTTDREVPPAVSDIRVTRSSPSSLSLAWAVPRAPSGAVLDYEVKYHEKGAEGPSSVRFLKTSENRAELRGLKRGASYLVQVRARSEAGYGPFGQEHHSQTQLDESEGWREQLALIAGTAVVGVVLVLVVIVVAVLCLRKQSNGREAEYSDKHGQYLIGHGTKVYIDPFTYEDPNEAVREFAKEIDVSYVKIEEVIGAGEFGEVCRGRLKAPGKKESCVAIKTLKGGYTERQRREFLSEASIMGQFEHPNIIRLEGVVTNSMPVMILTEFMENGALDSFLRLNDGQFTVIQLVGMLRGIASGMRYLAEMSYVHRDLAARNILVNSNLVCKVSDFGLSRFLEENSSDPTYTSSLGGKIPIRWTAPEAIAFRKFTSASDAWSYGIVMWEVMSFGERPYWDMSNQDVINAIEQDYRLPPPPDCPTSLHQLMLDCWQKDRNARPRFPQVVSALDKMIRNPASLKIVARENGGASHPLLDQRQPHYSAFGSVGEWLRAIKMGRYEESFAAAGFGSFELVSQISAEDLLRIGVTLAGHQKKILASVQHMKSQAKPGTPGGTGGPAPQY
Method: as §1

PKN1 (PRK1) = PKN1 (PRK1) (Homo sapiens, UniProt Q16512); assay: SelectScreen kinase assay
Method: as §1

MERTK (cMER) = MERTK (cMER) (Homo sapiens, UniProt Q12866); assay: SelectScreen kinase assay
Chain of MERTK (cMER) (Q12866 21-999): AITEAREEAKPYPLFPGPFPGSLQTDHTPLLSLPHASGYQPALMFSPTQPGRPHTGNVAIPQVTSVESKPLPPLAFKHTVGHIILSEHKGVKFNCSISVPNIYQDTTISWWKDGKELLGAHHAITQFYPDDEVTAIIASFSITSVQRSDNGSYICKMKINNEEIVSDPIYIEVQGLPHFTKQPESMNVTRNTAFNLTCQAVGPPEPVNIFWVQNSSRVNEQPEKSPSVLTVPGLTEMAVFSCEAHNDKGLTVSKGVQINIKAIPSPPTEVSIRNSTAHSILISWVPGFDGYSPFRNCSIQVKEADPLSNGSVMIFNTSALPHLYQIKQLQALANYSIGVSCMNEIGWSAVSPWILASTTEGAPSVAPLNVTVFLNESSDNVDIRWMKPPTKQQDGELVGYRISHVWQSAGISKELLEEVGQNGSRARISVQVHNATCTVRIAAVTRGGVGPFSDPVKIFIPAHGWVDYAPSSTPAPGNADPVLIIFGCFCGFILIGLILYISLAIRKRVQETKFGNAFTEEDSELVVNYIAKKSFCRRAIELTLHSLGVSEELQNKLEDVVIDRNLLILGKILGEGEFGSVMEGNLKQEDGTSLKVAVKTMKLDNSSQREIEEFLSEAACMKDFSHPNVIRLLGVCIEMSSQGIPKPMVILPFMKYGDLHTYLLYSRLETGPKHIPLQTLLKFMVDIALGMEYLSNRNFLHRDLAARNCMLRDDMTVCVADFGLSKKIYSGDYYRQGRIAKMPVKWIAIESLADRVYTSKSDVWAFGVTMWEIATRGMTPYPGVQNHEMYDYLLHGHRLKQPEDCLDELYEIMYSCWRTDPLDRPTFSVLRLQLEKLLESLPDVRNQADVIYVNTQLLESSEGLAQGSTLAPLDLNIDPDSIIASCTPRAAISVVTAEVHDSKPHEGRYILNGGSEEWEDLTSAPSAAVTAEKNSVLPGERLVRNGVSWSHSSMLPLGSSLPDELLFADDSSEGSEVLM
Method: as §1

SRMS (Srm) = SRMS (Srm) (Homo sapiens, UniProt Q9H3Y6); assay: SelectScreen kinase assay
Chain of SRMS (Srm) (Q9H3Y6 whole entry): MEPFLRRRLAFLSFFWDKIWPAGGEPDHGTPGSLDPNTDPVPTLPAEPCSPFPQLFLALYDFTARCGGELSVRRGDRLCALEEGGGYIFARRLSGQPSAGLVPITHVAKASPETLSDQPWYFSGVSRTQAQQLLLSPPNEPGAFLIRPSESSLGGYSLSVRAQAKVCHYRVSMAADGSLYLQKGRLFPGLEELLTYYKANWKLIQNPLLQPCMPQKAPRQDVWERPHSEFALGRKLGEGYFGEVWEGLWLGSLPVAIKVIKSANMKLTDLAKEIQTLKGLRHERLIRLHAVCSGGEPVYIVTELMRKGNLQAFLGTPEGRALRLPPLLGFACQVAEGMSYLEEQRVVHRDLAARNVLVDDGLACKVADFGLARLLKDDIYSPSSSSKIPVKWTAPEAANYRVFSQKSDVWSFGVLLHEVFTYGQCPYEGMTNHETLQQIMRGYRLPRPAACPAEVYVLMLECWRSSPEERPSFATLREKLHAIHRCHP
Method: as §1

[1] = target: PIK3CD/PIK3R1 (p110d/p85a) (Homo sapiens, UniProt O00329); assay: SelectScreen kinase assay; details: 1 h, 1 μM WEL028, 1 h preincubation
Method: as §1

endogenous FES^S700C = endogenous FES^S700C (Homo sapiens, UniProt P07332, S700C); assay: Gel-based target engagement in HL-60 neutrophils
Chain of endogenous FES^S700C (P07332 whole entry S700C): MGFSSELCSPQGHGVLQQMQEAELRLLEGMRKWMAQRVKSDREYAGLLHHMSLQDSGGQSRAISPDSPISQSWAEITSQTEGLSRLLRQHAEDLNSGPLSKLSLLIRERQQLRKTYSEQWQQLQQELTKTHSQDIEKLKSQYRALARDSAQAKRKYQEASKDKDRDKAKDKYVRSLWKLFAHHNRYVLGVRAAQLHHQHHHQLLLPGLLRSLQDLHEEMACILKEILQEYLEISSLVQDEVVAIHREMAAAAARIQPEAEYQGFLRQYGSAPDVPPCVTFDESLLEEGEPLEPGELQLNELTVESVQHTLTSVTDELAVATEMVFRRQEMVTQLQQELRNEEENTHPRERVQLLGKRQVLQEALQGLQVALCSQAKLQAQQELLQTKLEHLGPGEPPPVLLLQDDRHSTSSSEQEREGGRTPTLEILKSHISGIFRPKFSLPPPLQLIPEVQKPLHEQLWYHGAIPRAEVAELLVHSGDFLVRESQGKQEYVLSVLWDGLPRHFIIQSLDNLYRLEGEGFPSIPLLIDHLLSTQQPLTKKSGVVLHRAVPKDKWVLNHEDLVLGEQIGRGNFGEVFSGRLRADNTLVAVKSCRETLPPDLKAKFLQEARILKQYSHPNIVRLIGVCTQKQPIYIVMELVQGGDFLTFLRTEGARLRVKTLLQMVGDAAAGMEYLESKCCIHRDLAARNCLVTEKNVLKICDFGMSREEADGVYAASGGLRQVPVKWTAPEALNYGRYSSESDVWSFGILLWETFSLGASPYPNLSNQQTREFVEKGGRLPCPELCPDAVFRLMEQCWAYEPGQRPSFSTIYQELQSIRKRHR
Method: Data represent means ± SEM.
The term in situ is used to designate experiments in which live cell cultures are treated with inhibitor, whereas the term in vitro refers to experiments in which the inhibitor is incubated with cell lysates. Compounds were diluted in growth medium from a 1000x concentrated stock solution in DMSO. […] After 48 h, cells were treated with compound for 1 h. Cells were collected by suspension in PBS and centrifuged (1000g, 5 min, rt). Pellets were flash-frozen in liquid nitrogen and stored at −80 °C until use. For in situ treatment post-differentiation, HL-60 cells were differentiated as described above and incubated with compound for 1 h unless specified otherwise. Cells were collected by suspension for non-adherent cells and trypsinization for adherent cells. After collection, cells were centrifuged (200g, 5 min, rt) and washed in equal volume of PBS (1000g, 5 min, rt). Cell pellets were flash-frozen in liquid nitrogen and stored at −80 °C until use.

JAK1 = JAK1 (Homo sapiens, UniProt P23458); assay: SelectScreen kinase assay; details: for Inhibition at 1 µM (%): JAK1, ZLYTE, ATP Km app
Method: as §1

WNK2 = WNK2 (Homo sapiens, UniProt Q9Y3S1); assay: SelectScreen kinase assay
Chain of WNK2 (Q9Y3S1 whole entry): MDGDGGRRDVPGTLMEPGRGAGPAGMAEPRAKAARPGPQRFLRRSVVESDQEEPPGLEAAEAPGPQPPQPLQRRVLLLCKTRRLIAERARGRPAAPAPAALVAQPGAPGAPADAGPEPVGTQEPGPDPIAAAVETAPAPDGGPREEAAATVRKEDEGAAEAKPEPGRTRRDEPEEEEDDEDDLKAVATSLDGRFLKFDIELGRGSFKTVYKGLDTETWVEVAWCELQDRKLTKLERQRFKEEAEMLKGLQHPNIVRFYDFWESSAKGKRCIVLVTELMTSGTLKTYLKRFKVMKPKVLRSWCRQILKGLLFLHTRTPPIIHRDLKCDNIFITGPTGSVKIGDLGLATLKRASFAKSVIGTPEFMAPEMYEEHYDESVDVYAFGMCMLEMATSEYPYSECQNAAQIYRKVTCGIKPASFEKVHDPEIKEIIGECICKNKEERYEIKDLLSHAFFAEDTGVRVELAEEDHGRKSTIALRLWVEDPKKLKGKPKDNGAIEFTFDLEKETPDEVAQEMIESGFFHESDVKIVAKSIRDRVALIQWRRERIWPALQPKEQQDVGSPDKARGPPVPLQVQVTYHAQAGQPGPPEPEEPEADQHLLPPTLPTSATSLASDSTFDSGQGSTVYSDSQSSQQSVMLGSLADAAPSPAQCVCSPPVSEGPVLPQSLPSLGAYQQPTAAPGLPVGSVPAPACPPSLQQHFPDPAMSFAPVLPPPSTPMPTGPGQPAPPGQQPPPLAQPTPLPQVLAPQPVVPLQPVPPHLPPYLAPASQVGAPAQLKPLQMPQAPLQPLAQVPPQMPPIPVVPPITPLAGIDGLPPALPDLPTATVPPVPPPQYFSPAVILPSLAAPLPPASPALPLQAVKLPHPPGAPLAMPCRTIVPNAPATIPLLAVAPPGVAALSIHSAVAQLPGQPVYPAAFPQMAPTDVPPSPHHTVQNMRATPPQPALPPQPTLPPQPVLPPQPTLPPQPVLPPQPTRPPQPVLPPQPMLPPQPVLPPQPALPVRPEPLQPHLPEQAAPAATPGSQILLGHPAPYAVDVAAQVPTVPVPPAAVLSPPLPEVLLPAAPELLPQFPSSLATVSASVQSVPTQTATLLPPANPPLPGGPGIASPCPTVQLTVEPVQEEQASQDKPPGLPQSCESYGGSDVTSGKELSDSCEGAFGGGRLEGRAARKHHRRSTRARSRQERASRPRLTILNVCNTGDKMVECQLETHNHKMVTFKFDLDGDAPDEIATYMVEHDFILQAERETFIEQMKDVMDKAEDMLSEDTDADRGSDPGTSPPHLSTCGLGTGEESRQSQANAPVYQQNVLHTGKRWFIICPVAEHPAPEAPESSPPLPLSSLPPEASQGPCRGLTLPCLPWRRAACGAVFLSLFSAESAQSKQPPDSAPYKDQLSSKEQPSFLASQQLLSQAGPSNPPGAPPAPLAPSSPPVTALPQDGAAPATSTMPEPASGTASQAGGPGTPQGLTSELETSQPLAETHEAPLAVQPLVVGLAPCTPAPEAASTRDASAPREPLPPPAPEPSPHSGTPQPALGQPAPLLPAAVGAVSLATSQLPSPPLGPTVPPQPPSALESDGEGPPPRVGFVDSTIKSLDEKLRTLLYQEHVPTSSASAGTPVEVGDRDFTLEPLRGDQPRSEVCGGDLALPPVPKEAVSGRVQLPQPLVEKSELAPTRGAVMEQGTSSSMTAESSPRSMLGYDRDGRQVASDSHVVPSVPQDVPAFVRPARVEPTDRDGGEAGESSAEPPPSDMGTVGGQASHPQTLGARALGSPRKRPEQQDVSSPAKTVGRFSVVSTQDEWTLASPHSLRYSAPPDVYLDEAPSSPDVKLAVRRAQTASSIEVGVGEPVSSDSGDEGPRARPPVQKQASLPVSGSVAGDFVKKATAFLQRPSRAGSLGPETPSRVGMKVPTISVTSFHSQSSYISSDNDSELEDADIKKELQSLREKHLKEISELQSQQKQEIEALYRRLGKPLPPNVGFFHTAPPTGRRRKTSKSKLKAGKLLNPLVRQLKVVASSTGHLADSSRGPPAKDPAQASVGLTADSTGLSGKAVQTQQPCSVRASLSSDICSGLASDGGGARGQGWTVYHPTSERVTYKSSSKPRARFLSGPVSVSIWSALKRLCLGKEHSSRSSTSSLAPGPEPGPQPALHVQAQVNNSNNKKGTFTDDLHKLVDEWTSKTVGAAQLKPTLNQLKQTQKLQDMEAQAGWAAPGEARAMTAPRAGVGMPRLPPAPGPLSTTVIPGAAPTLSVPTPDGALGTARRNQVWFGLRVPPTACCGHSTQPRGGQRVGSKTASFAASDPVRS
Method: as §1

CDC42 BPB (MRCKB) = CDC42 BPB (MRCKB) (Homo sapiens, UniProt Q9Y5S2); assay: SelectScreen kinase assay; details: 1 h, 1 μM WEL028, 1 h preincubation
Method: as §1

[2] = 1 h, 1 μM WEL028, 1 h preincubation

SMILES: C#CCOc1ccc(Nc2ncc(Cl)c(Nc3ccccc3NC(=O)C=C)n2)c(OC)c1 [Compound 6]
- inhibition at 1 µM (DYRK2; [2]): 7%
- Inhibition at 1 µM (%) (DYRK2): 11%
- Inhibition at 1 µM (%) (DYRK2; listed as WEL028, 1 µM): 4%
- inhibition at 1 µM (EPHB4; [2]): 1%
- Inhibition at 1 µM (%) (EPHB4): 3%
- Inhibition at 1 µM (%) (EPHB4; listed as WEL028, 1 µM): -1%
- inhibition at 1 µM (PKN1 (PRK1); [2]): 7%
- Inhibition at 1 µM (%) (PKN1 (PRK1); PKN1 (PRK1), 1 µM, ZLYTE, ATP Km app, listed as WEL028, 1 µM): 5%
- inhibition at 1 µM (PKN1 (PRK1); read-out: Inhibition at 1 µM (%), PKN1 (PRK1), 1 µM, ZLYTE, ATP Km app): 8%
- inhibition at 1 µM (MERTK (cMER); [2]): 4%
- Inhibition at 1 µM (%) (MERTK (cMER); MERTK (cMER), 1 µM, ZLYTE, ATP Km app, listed as WEL028, 1 µM): 0% and 9%
- Inhibition at 1 µM (%) (SRMS (Srm); 1 µM, ZLYTE, ATP Km app, listed as WEL028, 1 µM): 8%
- inhibition at 1 µM (SRMS (Srm); [2]): 7%
- inhibition at 1 µM (SRMS (Srm); read-out: Inhibition at 1 µM (%), 1 µM, ZLYTE, ATP Km app): 6%
- inhibition at 1 µM [1]: 8%
- Inhibition of FES in live neutrophils (endogenous FES^S700C; 100 nM, 1 h): complete and selective inhibition of FES
- Relative FES labeling (%) (endogenous FES^S700C; Figure 7b, replicates, listed as WEL028): 9.291% and 9.41% and 8.966%
- Inhibition (%) (JAK1; 1 μM WEL028, 1 h preincubation): -3%
- Inhibition at 1 µM (%) (JAK1): -2%
- Inhibition at 1 µM (%) (JAK1; listed as WEL028, 1 µM): -3%
- Inhibition at 1 µM (%) (WNK2; 1 µM, LanthaScreen Binding, listed as WEL028, 1 µM): 4%
- inhibition at 1 µM (WNK2; [2]): 5%
- inhibition at 1 µM (WNK2; read-out: Inhibition at 1 µM (%), 1 µM, LanthaScreen Binding): 5%
- inhibition at 1 µM (CDC42 BPB (MRCKB)): 6%
